Assay results as given in PMC9456400 (International Journal of Molecular Sciences, 2022).

Key:
Huh-7 cells [1] = experiment: MTT cell viability assay; type: cell-based; settings: Homo sapiens; Huh-7, MTT
Method: Cell viability effects of lorlatinib were determined using the colorimetric MTT (3-4,5-dimethylthiazol-2-yl-2,5-diphenyl-tetrazolium bromide) reduction assay. Dose–response curves to graded concentrations of lorlatinib were plotted as a percentage of the control cell absorbance, which was obtained from control cells containing the vehicle (DMSO v/v) processed simultaneously. For each treatment, cell viability was evaluated using the following equation: (OD570 of the treated sample/OD570 of the untreated sample) × 100.

Huh-7 cells [2] = experiment: Oil Red O and LipidTOX staining of neutral lipids; type: cell-based, human; settings: Huh-7, chronic exposure 7 days; silibinin 10 μmol/L as co-treatment with lorlatinib
Method: We first employed a conventional index of fatty liver disease––the intracellular accumulation of neutral lipids (steatosis)––to confirm the ability of lorlatinib to trigger hypertriglyceridemia and hypercholesteremia.
(§1) For assessment of neutral lipid formation, cells were washed in PBS, fixed with 4% paraformaldehyde for 30 min, washed in distilled water, and then briefly incubated in 60% isopropanol. Following equilibration, cells were stained with a working solution (60%) of Oil Red O for 20 min. An Oil Red O stock solution was prepared by dissolving 0.35% w/v Oil Red O in 100 mL 100% isopropanol. HCS LipidTOX™ Green Neutral Lipid Stain (Invitrogen; Cat. #H34475) was employed as a second staining cocktail for visualization of intracellular neutral lipids. Formaldehyde fixation and preparing/using the labeling solution was carried out as per the manufacturer’s instructions.

HepG2 cells = experiment: Oil Red O staining of neutral lipids; type: cell-based, human; settings: HepG2, acute exposure 48 h; silibinin 100 μmol/L as co-treatment with lorlatinib
Method: To confirm these findings, we employed an independent in vitro model of fatty liver disease involving non-tumorigenic HepG2 cells, which are routinely employed as an inducible fatty liver cell model to screen for therapeutic drugs to eliminate lipid accumulation.
as §1

Question: How did the IC50 (Huh-7 cells [1]) turn out when `C[C@H]1Oc2cc(cnc2N)-c2c(nn(C)c2C#N)CN(C)C(=O)c2ccc(F)cc21` [lorlatinib, (10R)-7-amino-12-fluoro-2,10,16-trimethyl-15-oxo-10,15,16,17-tetrahydro-2H-8,4-(metheno)pyrazolo [4,3-h][2,5,11]-benzoxadiazacyclotetradecine-3-carbonitrile] was run?
Answer: 22 ± 5 µM

Question: What about the “Accumulation of neutral lipids (lipid droplets)” value (Huh-7 cells [2]) of the same compound?
Answer: accumulated large amounts of lipid droplet-like neutral lipids

Question: And the “Accumulation of neutral lipids (lipid droplets)” value (HepG2 cells)?
Answer: greater number of larger lipid droplets than untreated cells
